Test results from patent US20240335364A1, “COMPOSITIONS OF DICAFFEOYLQUINIC ACIDS WITH TOCOPHEROL” (SYMRISE AG, priority 2021, published 2024).

Legend:
Format in all cases: cell-based, human
Conditions in all cases: nHEK, 24 h
HSPB2 = assay: Modulation of HSPB2 gene expression of keratinocytes (real-time qPCR, RQ); parameters: key: relative quantity vs DMSO vehicle control (qPCR)
Procedure: (§1) Neonatal human epidermal keratinocytes (nHEK) were cultivated in an EpiLife® medium (Gibco) including an HKGS kit (Gibco) with 5% CO2 at 37° C. in accordance with the supplier's instructions. The cells were treated for 24 hours, with 0.0005% of the different dicaffeoylquinic acids from above dissolved in DMSO and DMSO alone as the vehicle control. Genomic target expression levels in treated cells were measured using a quantitative Real-Time PCR comparison to vehicle control treatment.
(§2) RNA was isolated using Qiagen's RNeasy® Mini Kit. The total RNA concentrations were measured using Eppendorf's μCuvetteG 1.0 and BioPhotometer, by measuring the absorption at 260 nm. Purity control values such as E260/280 and E260/230 were calculated simultaneously. Reverse transcription was performed using the high-capacity RNA-to-cDNA kit of Applied Biosystems, in accordance with the supplier's instructions. Samples were treated in Biometra's PCR Thermocycler. For fast real-time qPCR, the cDNA was diluted with RNase-free water, and the TaqMan™ Fast Universal PCR Master Mix of Applied Biosystems was used. Quantitative real time PCR was performed using the StepOnePlus fast real-time PCR instrument by Applied Biosystems. Analysis was conducted using the StepOne software and […] (normalised to endogenous control […] expression). For upregulations, RQ values ≥2.5 are considered to be relevant.
(§3) Neonatal human epidermal keratinocytes (nHEK) were cultivated as described in Example 1 and treated for 24 hours with 0.0007% of the different monocaffeoylquinic acids. Afterwards fast real-time qPCR was performed as described in above using a customised gene array.
(§4) Neonatal human epidermal keratinocytes (nHEK) were cultivated as described in Example 1 and treated for 24 hours with 4,5-dicaffeoylquinic acid (CAS number 14534-61-3, Phytolab GmbH & Co. KG) and (±)-α-tocopherol (CAS number 10191-41-0, synonym: Synonym: DL-α-Tocopherol, Vitamin E, Sigma-Aldrich, synthetic) alone and in combination. Afterwards fast real-time qPCR was performed as described in above using a customised gene array.
(§5) [formula] • With • A=RQ value by 4,5-dicaffeoylquinic acid at concentration x • B=RQ value by tocopherol at concentration y • C=RQ value by the combination of 4,5-dicaffeoylquinic acid at concentration x/2 and tocopherol at concentration y/2 • D=Factor for 4,5-dicaffeoylquinic acid=>0.5 (due to half concentration tested in the combination) • E=Factor for tocopherol=>0.5 (due to half concentration tested in the combination) • A SI=1 is obtained for additive activity of the two combined components, whereas a SI <1 proves antagonistic activity (observed efficacy is lower than additive) and SI >1 proves synergistic activity (observed efficacy is higher than additive).
(§6) Neonatal human epidermal keratinocytes (nHEK) were cultivated as described above and treated for 24 hours with yarrow extract of example 3 (Achillea millefolium, freeze-dried fresh press juice of flowering aerials, cultivated in Germany) and (±)-α-tocopherol (CAS number 10191-41-0, synonym: Synonym: DL-α-Tocopherol, Vitamin E, Sigma-Aldrich, synthetic) alone and in two combinations. Afterwards fast real-time qPCR was performed as described in above using a customised gene array.

HSPB8 = assay: Modulation of HSPB8 gene expression of keratinocytes (real-time qPCR, RQ); parameters: key: RQ: expression relative to DMSO vehicle control (qPCR)
Procedure: as §1, §2, §3
(§7) Neonatal human epidermal keratinocytes (nHEK) were cultivated as described in Example 1 and treated for 24 hours with 0.005% of the extract samples. Afterwards fast real-time qPCR was performed as described in above using a customized gene array.
as §4, §5, §6

DSG1 = assay: Modulation of DSG1 gene expression of keratinocytes (real-time qPCR, RQ); parameters: key: relative quantity vs DMSO vehicle control (qPCR)
Procedure: as §1, §2, §3, §7, §4, §5
(§8) Neonatal human epidermal keratinocytes (nHEK) were cultivated as described in Example 1 and treated for 24 hours with 3,4-dicaffeoylquinic acid (CAS number 57378-72-0, Phytolab GmbH & Co. KG) and (+)-α-tocopherol (CAS number 59-02-9, synonym: Synonym: D-α-tocopherol, Vitamin E, Sigma-Aldrich) alone and in combination. Afterwards fast real-time qPCR was performed as described in above using a customised gene array. For upregulations, RQ values ≥2.5 are considered to be relevant.
Neonatal human epidermal keratinocytes (nHEK) were cultivated as described above and treated for 24 hours with 3,5-dicaffeoylquinic acid (CAS number 2450-53-5, Phytolab GmbH & Co. KG) and D-α-tocopherol (CAS number 59-02-9, synonym: (+)-α-tocopherol, Vitamin E, trade name: Copherol® F 1300 C, BTC Europe GmbH) alone and in combination. Afterwards fast real-time qPCR was performed as described in above using a customised gene array. […]

DEFB1 = assay: Modulation of DEFB1 gene expression of keratinocytes (real-time qPCR, RQ); parameters: key: RQ = expression relative to DMSO vehicle control (qPCR)
Procedure: as §1, §2, §3, §4, §5, §6
Neonatal human epidermal keratinocytes (nHEK) were cultivated as described above and treated for 24 hours with yarrow extract of example 3 (Achillea millefolium, freeze-dried fresh press juice of flowering aerials, cultivated in Germany) and (+)-α-tocopherol (CAS number 59-02-9, synonym: Synonym: D-α-tocopherol, Vitamin E, Sigma-Aldrich) alone and in combination. Afterwards fast real-time qPCR was performed as described in above using a customised gene array.

CLDN1 = assay: Modulation of CLDN1 gene expression of keratinocytes (real-time qPCR, RQ)
Procedure: as §1, §2, §3, §7, §4, §5, §8, §6

DSC1 = assay: Modulation of DSC1 gene expression of keratinocytes (real-time qPCR, RQ); parameters: key: RQ: expression relative to DMSO vehicle control
Procedure: as §1, §2, §3, §7, §4, §5, §8
(§9) Neonatal human epidermal keratinocytes (nHEK) were cultivated as described above and treated for 24 hours with yarrow extract of example 3 (Achillea millefolium, freeze-dried fresh press juice of flowering aerials, cultivated in Germany) and (±)-α-tocopherol (CAS number 10191-41-0, synonym: Synonym: DL-α-Tocopherol, Vitamin E, Sigma-Aldrich, synthetic) alone and in two combinations. Afterwards fast real-time qPCR was performed as described in above using a customised gene array. […]

CRYAB = assay: Modulation of CRYAB gene expression of keratinocytes (real-time qPCR, RQ); parameters: key: relative quantity (RQ) vs DMSO vehicle-treated control
Procedure: as §1, §2, §3, §7, §4, §5
Neonatal human epidermal keratinocytes (nHEK) were cultivated as described above and treated for 24 hours with 3,5-dicaffeoylquinic acid (CAS number 2450-53-5, Phytolab GmbH & Co. KG) and D-α-tocopherol (CAS number 59-02-9, synonym: (+)-α-tocopherol, Vitamin E, trade name: Copherol® F 1300 C, BTC Europe GmbH) alone and in combination. Afterwards fast real-time qPCR was performed as described in above using a customised gene array.
as §9

OCLN = assay: Modulation of OCLN gene expression of keratinocytes (real-time qPCR, RQ); parameters: key: RQ: expression relative to DMSO vehicle control (qPCR)
Procedure: as §1, §2, §3, §7, §4, §5, §6

SMILES	RQ value HSPB2 (HSPB2; 0.0005%, Example 1)	RQ value HSPB8 (HSPB8; 0.0005%, Example 1)	RQ value DSG1 (DSG1; 0.0005%, Example 1)	RQ value DEFB1 (DEFB1; 0.0005%, Example 1)	RQ value CLDN1 (CLDN1; 0.0005%, Example 1)	RQ value DSC1 (DSC1; 0.0005%, Example 1)	RQ value CRYAB (CRYAB; 0.0005%, Example 1)	RQ value OCLN (OCLN; 0.0005%, Example 1)	other results
O=C(/C=C/c1ccc(O)c(O)c1)O[C@@H]1CC(O)(C(=O)O)C[C@@H](OC(=O)/C=C/c2ccc(O)c(O)c2)C1O (stereo partly drawn) [3,5-Dicaffeoylquinic acid, 3,5-dicaffeoylquinic acid]	6.1	6.2	12.2	3.4	4.7	20.5	16.5	3.5	RQ value DSG1 (DSG1; 0.0002% alone, Example 6): 2.4; RQ value CRYAB (CRYAB; 0.0002% alone, Example 6): 2.7
O=C(/C=C/c1ccc(O)c(O)c1)O[C@@H]1C[C@](OC(=O)/C=C/c2ccc(O)c(O)c2)(C(=O)O)C[C@@H](O)[C@H]1O [1,5-Dicaffeoylquinic acid, 1,5-dicaffeoylquinic acid]	2.4	2.8	5.3	2.4	2.4	7.6	7.2	2.2	–
O=C(/C=C/c1ccc(O)c(O)c1)O[C@@H]1[C@H](O)C[C@@](O)(C(=O)O)C[C@H]1OC(=O)/C=C/c1ccc(O)c(O)c1 [3,4-Dicaffeoylquinic acid, 3,4-dicaffeoylquinic acid]	4.9	7.3	14.9	3.5	5.1	25.8	18.7	4.2	RQ value DSG1 (DSG1; 0.0006% alone, Example 5): 2.1; RQ value CLDN1 (CLDN1; 0.0006% alone, Example 5): 4.2; RQ value DSC1 (DSC1; 0.0006% alone, Example 5): 6.2
O=C(/C=C/c1ccc(O)c(O)c1)O[C@H]1[C@H](O)C[C@](O)(C(=O)O)C[C@H]1OC(=O)/C=C/c1ccc(O)c(O)c1 [4,5-Dicaffeoylquinic acid, 4,5-dicaffeoylquinic acid]	4.3	4.2	10.6	3.2	3.5	18.1	13.8	2.4	RQ value HSPB2 (HSPB2; 0.0007% alone, Example 4): 5.7; RQ value HSPB8 (HSPB8; 0.0007% alone, Example 4): 6.2; RQ value DSG1 (DSG1; 0.0007% alone, Example 4): 11.1; RQ value DEFB1 (DEFB1; 0.0007% alone, Example 4): 4.3; RQ value CLDN1 (CLDN1; 0.0007% alone, Example 4): 2.4; RQ value DSC1 (DSC1; 0.0007% alone, Example 4): 25.0; RQ value CRYAB (CRYAB; 0.0007% alone, Example 4): 21.1; RQ value OCLN (OCLN; 0.0007% alone, Example 4): 3.4
